“Also recorded” adds a separate entry of the source. Where two headings read alike, the source gives them in different places. Residues, ends and D or L forms follow the SMILES beside them.

These results are taken from US20080050354A1, “PROTECTING BIOACTIVE FOOD INGREDIENTS USING MICROORGANISMS HAVING REDUCED METABOLIZING CAPACITY” (COMPAGNIE GERVAIS DANONE, priority 2004, published 2008).

Series [1] concerns mouse peritoneal macrophages. Particulars: in vitro; cited from earlier work.
The conditions of series [2]: cited from earlier work.
Series [3] has as its system Staphylococcus aureus. Particulars: Mice, IM injection; cited from earlier work.
The test system of series [4] is pathogenic strains. Particulars: in vitro; cited from earlier work.
In series [5] the test system is Staphylococcus aureus. Particulars: sheep, IM injection; cited from earlier work.
The test system of series [6] is small intestine motility. Particulars: 10 g/300 ml water via intragastric probe; cancelled with naloxone; cited from earlier work.
Series [7] concerns pathogenic strains. Particulars: in vitro; cited from earlier work. The source holds these as a separate data set.
For series [8], the system named is platelet aggregation. Particulars: in vitro; cited from earlier work.
A short description of series [9]: Storage of fermented product thermized at 75° C. for 1 minute. Particulars: thermized 75° C., about 1 minute. How it is done: FIG. 5: Curves illustrating the change in the residual content of bioactive peptide αS1 [91-100], added after fermentation in a fermented product and then thermized at 75° C. for 1 minute, and stored at 10° C. up to the expiry date.
(FIG. 5), but at the expense of the overall quality of the finished product. Specifically, this solution has many drawbacks: • the thermization of a fermented dairy mass entails the use of stabilizers added before the heat treatment (pectins, starches, carrageenans, etc.), which complicates the process and substantially increases the cost of the formula; • the industrial manufacturing line is more complex and requires a larger specific investment; • the product no longer benefits from appellations associated with products containing live ferments (such as yogurt) and as a result loses the benefits associated with the consumption of lactic ferments; • the organoleptic impact (generally negative) is substantial.

On to “191-193 casein: Bovine β-casein fragment 191-193 (LLY; UniProt P02666 206-208, looked up, fragment)”, for which, in series [1], the “effect on mouse peritoneal macrophages” value is listed as “Stimulation of mouse”. For the same compound, in [2], the in vivo protection entry is on record as “No in vivo protection”.

Regarding `CC[C@H](C)[C@H](NC(=O)[C@@H]1CCCN1C(=O)[C@H](Cc1cnc[nH]1)NC(=O)[C@H](CCCCN)NC(=O)[C@@H]1CCCN1C(=O)[C@@H](N)CCCNC(=N)N)C(=O)N[C@@H](CCCCN)C(=O)N[C@@H](Cc1cnc[nH]1)C(=O)N[C@@H](CCC(N)=O)C(=O)NCC(=O)N[C@@H](CC(C)C)C(=O)N1CCC[C@H]1C(=O)N[C@@H](CCC(N)=O)C(=O)N[C@@H](CCC(=O)O)C(=O)N[C@H](C(=O)N[C@@H](CC(C)C)C(=O)N[C@@H](CC(N)=O)C(=O)N[C@@H](CCC(=O)O)C(=O)N[C@@H](CC(N)=O)C(=O)N[C@@H](CC(C)C)C(=O)N[C@@H](CC(C)C)C(=O)N[C@@H](CCCNC(=N)N)C(=O)N[C@@H](Cc1ccccc1)C(=O)O)C(C)C` [isracidin] (H-RPKHPIKHQGLPQEVLNENLLRF-OH), the “efficacy against Staphylococcus aureus” value in series [3] was “Mice, sheep: effective in IM”; in series [5], “Mice, sheep: effective in IM”. For the same compound, the “growth of pathogenic strains” value in series [4] is recorded as “Inhibition of growth”.

As to Casein, in series [6], the small intestine motility entry is recorded as “intragastric probe: inhibition”.

As to Lactoferricin, the “growth of pathogenic strains” value in series [7] is given as “Inhibition of growth”.

As for “Peptide 106-116 of bovine κ-casein: Peptide 106-116 of bovine κ-casein (MAIPPKKNQDK; UniProt P02668 127-137, looked up, fragment)”, the platelet aggregation result in [8] is reported as “Inhibition of”.

Take “peptide αS1 [91-100]: fragment 91-100 of casein αS1; peptide with relaxing properties contained in the milk protein hydrolyzate Lactium® (Ingredia) (YLGYLEQLLR; UniProt P02662 106-115, looked up, fragment)”: in series [9], the “stability of the peptide after heat treatment of the fermented product” value is given as “possible to ensure the stability; also recorded: possible to preserve”.
